In the assay the target is QPCTL (Homo sapiens (Human), UniProt Q9NXS2). The assay is described as follows: QPCTL inhibition, SensoLyte Green Glutaminyl Cyclase Activity Assay. Format: biochemical. As to conditions: 0.8 nM 2x enzyme solution, 45 min at 37° C., 50 mM Tris pH 8.0, 1% DMSO. As to the method: Preparation of working solution: 2×Glutaminyl Cyclase substrate was diluted in assay buffer to […]. 2×enzyme solution and QPCTL was diluted in assay buffer to 0.8 nM. Glutaminyl Cyclase Developer was diluted in assay buffer to 1×(containing 10 mM 1-Benzyl-Imidazole). Serial dilution of test compounds was performed in DMSO. The final DMSO concentration in 100 μl reaction was 1%. The assay buffer was 50 mM Tris, pH 8.0, 0.01% BSA.
Procedure: 50 μL of 2×Glutaminyl Cyclase substrate solution was added into the assay plate followed by 50 μL of 2×enzyme solution. The plate was centrifuged for 1 min at 1000 rmp. Next the plate was incubated for 45 minutes at 37° C. This was followed by the additional of 50 μL of the prepared Glutaminyl Cyclase developer and incubated for additional 30 min at 37° C. Results were read on SpectraMax Paradigm detecting with emission at Ex/Em=490 nm/520 nm.
A Z′ value was calculated for each assay plate. The Z′ value must be >0.5 or the plate was disqualified. […] Results were calculated using GraphPad Prism 7 software is used for IC50 determination.

Chain of QPCTL (Q9NXS2 whole entry, species assumed): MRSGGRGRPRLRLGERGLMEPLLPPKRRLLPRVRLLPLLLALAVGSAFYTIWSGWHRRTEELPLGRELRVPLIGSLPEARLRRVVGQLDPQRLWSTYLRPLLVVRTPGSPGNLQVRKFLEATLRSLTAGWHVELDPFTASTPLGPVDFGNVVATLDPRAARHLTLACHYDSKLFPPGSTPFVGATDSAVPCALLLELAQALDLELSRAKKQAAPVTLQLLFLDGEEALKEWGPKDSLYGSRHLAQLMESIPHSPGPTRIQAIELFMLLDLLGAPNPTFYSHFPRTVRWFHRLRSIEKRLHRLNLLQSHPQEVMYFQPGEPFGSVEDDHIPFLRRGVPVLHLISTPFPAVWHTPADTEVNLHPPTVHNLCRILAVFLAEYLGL

`C=C1C(=O)N(c2ccc3[nH]cnc3c2)C1c1c(F)cc(OCCC(F)F)cc1F` (racemic) [Compound 22, (racemic)-1-(1H-benzo[d]imidazol-5-yl)-4-(4-(3,3-difluoropropoxy)-2,6-difluorophenyl)-3-methyleneazetidin-2-one] showed an IC50 of less than 2 nM.

On to `C[C@H]1C(=O)N(c2ccc3[nH]cnc3c2)[C@H]1c1ccc(OCCC(F)F)nc1` (racemic) [Compound 23CR, (cis and racemic)-1-(1H-benzo[d]imidazol-5-yl)-4-(6-(3,3-difluoropropoxy)pyridin-3-yl)-3-methylazetidin-2-one], for which the IC50 fell in the range of 2 to 25 nM. To `O=C1[C@H](O)[C@H](c2c(F)cc(-c3cnn(C(F)F)c3)cc2F)N1c1ccc2[nH]cnc2c1` (racemic) [Compound 25CR] belongs less than 2 nM; to `O=C1[C@@H](O)[C@H](c2c(F)cc(-c3cnn(C(F)F)c3)cc2F)N1c1ccc2[nH]cnc2c1` (racemic) [Compound 25TR], 2 to 25 nM; to `C[C@H]1C(=O)N(c2ccc3[nH]cnc3c2)[C@H]1c1c(F)cc(-n2cc(C(F)(F)F)cn2)cc1F` (racemic) [Compound 28CR, (cis and racemic)-1-(1H-benzo[d]imidazol-5-yl)-4-(2,6-difluoro-4-(4-(trifluoromethyl)-1H-pyrazol-1-yl)phenyl)-3-methylazetidin-2-one], 2 to 25 nM. To `C[C@@H]1C(=O)N(c2ccc3[nH]cnc3c2)[C@H]1c1c(F)cc(-n2cc(C(F)(F)F)cn2)cc1F` (racemic) [Compound 28TR, (trans and racemic)-1-(1H-benzo[d]imidazol-5-yl)-4-(2,6-difluoro-4-(4-(trifluoromethyl)-1H-pyrazol-1-yl)phenyl)-3-methylazetidin-2-one] belongs 2 to 25 nM; to `C[C@H]1C(=O)N(c2ccc3[nH]cnc3c2)[C@H]1c1c(F)cc(OCCC2CC2)cc1F` (racemic) [Compound 34CR, (Cis and racemic)-1-(1H-benzo[d]imidazol-5-yl)-4-(4-(2-cyclopropylethoxy)-2,6-difluorophenyl)-3-methylazetidin-2-one], less than 2 nM. For `C[C@@H]1C(=O)N(c2ccc3[nH]cnc3c2)[C@H]1c1c(F)cc(OCCC2CC2)cc1F` (racemic) [Compound 34TR, (Trans and racemic)-1-(1H-benzo[d]imidazol-5-yl)-4-(4-(2-cyclopropylethoxy)-2,6-difluorophenyl)-3-methylazetidin-2-one] the value was 25 to 1000 nM. Take `C[C@@H]1C(=O)N(c2ccc3[nH]cnc3c2)[C@H]1c1c(F)cc(OCCC(F)F)cc1F` (single isomer, unassigned) [Compound 7A]: the IC50 lay within 25 to 1000 nM. To `C[C@H]1C(=O)N(c2ccc3[nH]cnc3c2)[C@H]1c1c(F)cc(OCCC(F)F)cc1F` (single isomer, unassigned) [Compound 7B] belongs less than 2 nM; to `O=C1[C@@H](O)[C@@H](c2c(F)cc(OCCC(F)F)cc2F)N1c1ccc2[nH]cnc2c1` (single isomer, unassigned) [Compound 8A], greater than 1000 nM; to `O=C1[C@H](O)[C@H](c2c(F)cc(OCCC(F)F)cc2F)N1c1ccc2[nH]cnc2c1` (single isomer, unassigned) [Compound 8B], less than 2 nM.

`C[C@@H]1C(=O)N(c2ccc3[nH]cnc3c2)[C@@H]1c1c(F)cc(-c2cnn(C)c2)cc1F` (single isomer, unassigned) [Compound 13A] showed an IC50 greater than 1000 nM. For `C[C@H]1C(=O)N(c2ccc3[nH]cnc3c2)[C@H]1c1c(F)cc(-c2cnn(C)c2)cc1F` (single isomer, unassigned) [Compound 13B], the IC50 fell in the range of 2 to 25 nM. To `C[C@@H]1C(=O)N(c2ccc3[nH]cnc3c2)[C@@H]1c1c(F)cc(-c2cnn(C(F)(F)F)c2)cc1F` (single isomer, unassigned) [Compound 14A] belongs 25 to 1000 nM; to `C[C@H]1C(=O)N(c2ccc3[nH]cnc3c2)[C@H]1c1c(F)cc(-c2cnn(C(F)(F)F)c2)cc1F` (single isomer, unassigned) [Compound 14B], less than 2 nM.

Consider `Cn1cc(-c2cc(F)c([C@@H]3[C@H](O)C(=O)N3c3ccc4[nH]cnc4c3)c(F)c2)cn1` (single isomer, unassigned) [Compound 15A], for which the IC50 is greater than 1000 nM. `Cn1cc(-c2cc(F)c([C@H]3[C@@H](O)C(=O)N3c3ccc4[nH]cnc4c3)c(F)c2)cn1` (single isomer, unassigned) [Compound 15B]: the IC50 was less than 2 nM. Consider `C[C@@H]1C(=O)N(c2ccc3[nH]cnc3c2)[C@@H]1c1c(F)cc(-c2cnn(C(F)F)c2)cc1F` (single isomer, unassigned) [Compound 17A], for which the IC50 fell in the range of 25 to 1000 nM. To `C[C@H]1C(=O)N(c2ccc3[nH]cnc3c2)[C@H]1c1c(F)cc(-c2cnn(C(F)F)c2)cc1F` (single isomer, unassigned) [Compound 17B] belongs less than 2 nM; to `O=C1[C@@H](C2CC2)[C@@H](c2c(F)cc(OCCC(F)F)cc2F)N1c1ccc2[nH]cnc2c1` (single isomer, unassigned) [Compound 18A], greater than 1000 nM; to `O=C1[C@H](C2CC2)[C@H](c2c(F)cc(OCCC(F)F)cc2F)N1c1ccc2[nH]cnc2c1` (single isomer, unassigned) [Compound 18B], less than 2 nM. In turn, `C=C1C(=O)N(c2ccc3[nH]cnc3c2)[C@@H]1c1c(F)cc(OCCC(F)F)cc1F` (single isomer, unassigned) [Compound 22A] showed an IC50 of 25 to 1000 nM. For `C=C1C(=O)N(c2ccc3[nH]cnc3c2)[C@H]1c1c(F)cc(OCCC(F)F)cc1F` (single isomer, unassigned) [Compound 22B] the value was less than 2 nM; for `C[C@@H]1C(=O)N(c2ccc3[nH]cnc3c2)[C@@H]1c1c(F)cc(N2CCC(F)(F)CC2)cc1F` (single isomer, unassigned) [Compound 30A], greater than 1000 nM. Consider `C[C@H]1C(=O)N(c2ccc3[nH]cnc3c2)[C@H]1c1c(F)cc(N2CCC(F)(F)CC2)cc1F` (single isomer, unassigned) [Compound 30B], for which the IC50 fell in the range of 2 to 25 nM. For `C[C@@H]1C(=O)N(c2ccc3[nH]cnc3c2)[C@@H]1c1c(F)cc(OCC(C)(C)O)cc1F` (single isomer, unassigned) [Compound 32A] the value was 25 to 1000 nM; for `C[C@H]1C(=O)N(c2ccc3[nH]cnc3c2)[C@H]1c1c(F)cc(OCC(C)(C)O)cc1F` (single isomer, unassigned) [Compound 32B], less than 2 nM; for `O=C1[C@@H](C2CC2)[C@@H](c2c(F)cc(-c3cnn(C(F)(F)F)c3)cc2F)N1c1ccc2[nH]cnc2c1` (single isomer, unassigned) [Compound 35A], 25 to 1000 nM. For the compound `O=C1[C@H](C2CC2)[C@H](c2c(F)cc(-c3cnn(C(F)(F)F)c3)cc2F)N1c1ccc2[nH]cnc2c1` (single isomer, unassigned) [Compound 35B], the half-inhibitory concentration (IC50) was less than 2 nM. To `O=C1[C@@H](C2COC2)[C@@H](c2c(F)cc(-c3cnn(C(F)(F)F)c3)cc2F)N1c1ccc2[nH]cnc2c1` (single isomer, unassigned) [Compound 42A] belongs 25 to 1000 nM; to `O=C1[C@H](C2COC2)[C@H](c2c(F)cc(-c3cnn(C(F)(F)F)c3)cc2F)N1c1ccc2[nH]cnc2c1` (single isomer, unassigned) [Compound 42B], less than 2 nM; to `O=C1[C@@H](C2CC2)[C@@H](c2ccc(-c3cnn(C(F)(F)F)c3)nc2)N1c1ccc2[nH]cnc2c1` (single isomer, unassigned) [Compound 43A], 25 to 1000 nM. For `O=C1[C@H](C2CC2)[C@H](c2ccc(-c3cnn(C(F)(F)F)c3)nc2)N1c1ccc2[nH]cnc2c1` (single isomer, unassigned) [Compound 43B] the value was less than 2 nM; for `O=C1[C@H](C2COC2)[C@H](c2c(F)cc(OCCC(F)F)cc2F)N1c1ccc2[nH]cnc2c1` (single isomer, unassigned) [Compound 44B], less than 2 nM. `O=C1[C@@H](C2CC2)[C@@H](c2ccc(OCCC(F)F)nc2)N1c1ccc2[nH]cnc2c1` (single isomer, unassigned) [Compound 45A] gave an IC50 of 25 to 1000 nM. As to `O=C1[C@H](C2CC2)[C@H](c2ccc(OCCC(F)F)nc2)N1c1ccc2[nH]cnc2c1` (single isomer, unassigned) [Compound 45B], the IC50 was less than 2 nM.

`O=C1[C@@H](C2CC2)[C@@H](c2ccc(-c3cnn(C(F)(F)F)c3)cn2)N1c1ccc2[nH]cnc2c1` (single isomer, unassigned) [Compound 46A] registered an IC50 of 25 to 1000 nM. For `O=C1[C@H](C2CC2)[C@H](c2ccc(-c3cnn(C(F)(F)F)c3)cn2)N1c1ccc2[nH]cnc2c1` (single isomer, unassigned) [Compound 46B] the value was less than 2 nM; for `O=C1[C@H](C2CC2)[C@H](c2c(F)cc(-c3ccn(C(F)(F)F)n3)cc2F)N1c1ccc2[nH]cnc2c1` (single isomer, unassigned) [Compound 47B], less than 2 nM; for `O=C1[C@@H](C2CC2)[C@@H](c2c(F)cc(-n3ccc(C(F)(F)F)n3)cc2F)N1c1ccc2[nH]cnc2c1` (single isomer, unassigned) [Compound 48A], 2 to 25 nM. For `O=C1[C@H](C2CC2)[C@H](c2c(F)cc(-n3ccc(C(F)(F)F)n3)cc2F)N1c1ccc2[nH]cnc2c1` (single isomer, unassigned) [Compound 48B] the value was less than 2 nM.

A word on the IC50: it is the point on the concentration scale where inhibition reaches its midpoint. Low values mean greater potency, high ones weaker potency.

For the origin of these results see US11834440B2, “Beta-lactam derivatives for the treatment of diseases” (Insilico Medicine IP Limited, priority 2021, dated 2023).
